According to US9957257B2, “Amide compounds as 5-HT4 receptor agonists” (SUVEN LIFE SCIENCES LIMITED, priority 2015, dated 2018):
Where “and” joins values, the source holds several entries; their conditions need not be identical. Equal entries are not always repeated. Structures can show the parent of a compound that is named as a salt.

molecular target: T1, recombinant human 5-HT4 receptor (Homo sapiens, UniProt Q13639); test: Determination of EC50 values for 5-HT4 receptor (CHO cells, pCRE-Luc reporter); type: cell-based; settings: luciferase reporter, 4 hours incubation, read-out: 5-HT4 receptor agonistic binding in-vitro EC50
T1 construct: expressed in transfected cells
T1 sequence (Q13639 whole entry): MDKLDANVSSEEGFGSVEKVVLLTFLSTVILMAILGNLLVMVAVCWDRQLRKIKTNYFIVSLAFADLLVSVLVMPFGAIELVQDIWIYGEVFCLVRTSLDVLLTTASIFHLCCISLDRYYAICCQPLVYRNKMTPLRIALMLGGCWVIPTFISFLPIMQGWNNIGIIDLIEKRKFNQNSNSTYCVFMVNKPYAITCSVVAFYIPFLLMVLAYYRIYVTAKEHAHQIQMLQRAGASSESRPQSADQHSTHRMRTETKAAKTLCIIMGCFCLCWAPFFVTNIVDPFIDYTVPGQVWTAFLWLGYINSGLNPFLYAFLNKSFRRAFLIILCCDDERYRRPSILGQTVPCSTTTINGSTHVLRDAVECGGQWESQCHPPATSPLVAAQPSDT
Description: A stable CHO cell line expressing recombinant human 5-HT4 receptor and pCRE-Luc reporter system was used for cell-based assay. The assay offers a non-radioactive based approach to determine binding of a compound to GPCRs. In this specific assay, the level of intracellular cyclic AMP, which is modulated by activation, or inhibition of the receptor is measured. The recombinant cells harbor luciferase reporter gene under the control of cAMP response element.
The above cells were grown in 96 well clear bottom white plates in Hams F12 medium containing 10% fetal bovine serum (FBS). Prior to the addition of compounds or standard agonist, cells were serum starved overnight. Increasing concentrations of test compounds were added in OptiMEM medium to the cells. The incubation was continued at 37° C. in CO2 incubator for 4 hours. Medium was removed and cells were washed with phosphate buffered saline. The cells were lysed and luciferase activity was measured in a Luminometer. Luminescence units were plotted against the compound concentrations using Graphpad software. EC50 values of the compounds were defined as the concentration required in stimulating the luciferase activity by 50%.

Row | SMILES | EC50
1 | COCCCN1CC2C(CNC(=O)c3cc(Cl)c(N)c4cc(C)oc34)C2C1 (centres unmarked) [Example 64, 4-Amino-5-chloro-2-methyl-N-{[3-(3-methoxypropyl)-3-azabicyclo[3.1.0]hex-6-yl]methyl}benzofuran-7-carboxamide hydrochloride] | 1.1 to 5 nM
2 | COCCCN1CC2C(CNC(=O)c3cc(Cl)c(N)c4c3OCC4)C2C1 (centres unmarked) [Example 62, 4-Amino-5-chloro-N-{[3-(3-methoxypropyl)-3-azabicyclo[3.1.0]hex-6-yl]methyl}-2,3-dihydrobenzofuran-7-carboxamide oxalate] | 1.1 to 5 nM
3 | Nc1c(Cl)cc(C(=O)NCC2C3CN(CC4CCOCC4)CC23)c2c1CCCO2 (centres unmarked) [Example 1, 5-Amino-6-chloro-N-{[3-(tetrahydro-2H-pyran-4-ylmethyl)-3-azabicyclo[3.1.0]hex-6-yl]methyl}chroman-8-carboxamide hydrochloride] | ≤ 1 nM
4 | Nc1c(Cl)cc(C(=O)NCC2C3CN(CC4(F)CCOCC4)CC23)c2c1CCCO2 (stereo not drawn) [Example 36, 5-Amino-6-chloro-N-{[3-(4-fluorotetrahydro-2H-pyran-4-ylmethyl)-3-azabicyclo[3.1.0]hex-6-yl]methyl}chroman-8-carboxamide L(+)-tartarate] | ≤ 1 nM
5 | Nc1c(Cl)cc(C(=O)NCC2C3CN(CC4CCOCC4)CC23)c2c1CCO2 (stereo not drawn) [Example 26, 4-Amino-5-chloro-N-{[3-(tetrahydropyran-4-ylmethyl)-3-azabicyclo[3.1.0]hex-6-yl]methyl}-2,3-dihydrobenzofuran-7-carboxamide L(+)-tartarate] | 1.1 to 5 nM
6 | CC(C)(O)CN1CCC(CNC(=O)c2cc(Cl)c(N)c3ccoc23)CC1 [Example 49, 4-Amino-5-chloro-N-{[1-(2-hydroxy-2-methylpropyl)-4-piperidinyl]methyl}benzofuran-7-carboxamide L(+)-tartarate] | 1.1 to 5 nM
7 | Nc1c(Cl)cc(C(=O)NCC2C3CN(C4CCOCC4)CC23)c2c1CCCO2 (stereo not drawn) [Example 6, 5-Amino-6-chloro-N-{[3-(tetrahydro-2H-pyran-4-yl)-3-azabicyclo[3.1.0]hex-6-yl]methyl}chroman-8-carboxamide L(+)-tartarate] | 1.1 to 5 nM
8 | Nc1ccc(C(=O)NCC2C3CN(CC4CCOCC4)CC23)c2c1CCCO2 (stereo not drawn) [Example 7, 5-Amino-N-{[3-(tetrahydro-2H-pyran-4-ylmethyl)-3-azabicyclo[3.1.0]hex-6-yl]methyl}chroman-8-carboxamide L(+)-tartarate] | 10.1 to 20 nM
9 | Nc1c(Cl)cc(C(=O)NCC2C3CN(C4CCOCC4)CC23)c2occc12 (centres unmarked) [Example 15, 4-Amino-5-chloro-N-{[3-(tetrahydro-2H-pyran-4-yl)-3-azabicyclo[3.1.0]hex-6-yl]methyl}benzofuran-7-carboxamide oxalate] | 10.1 to 20 nM
10 | CC(C)(O)CN1CC2C(CNC(=O)c3cc(Cl)c(N)c4ccoc34)C2C1 (stereo not drawn) [Example 51, 4-Amino-5-chloro-N-{[3-(2-hydroxy-2-methylpropyl)-3-azabicyclo[3.1.0]hex-6-yl]methyl}benzofuran-7-carboxamide L(+)-tartarate] | 10.1 to 20 nM
11 | COCC(C)(C)CN1CC2C(CNC(=O)c3cc(Cl)c(N)c4c3OCCC4)C2C1 (centres unmarked) [Example 60, 5-Amino-6-chloro-N-{[3-(3-methoxy-2,2-dimethylpropyl)-3-azabicyclo[3.1.0]hex-6-yl]methyl}chroman-8-carboxamide] | ≤ 1 nM and 1.1 to 5 nM
12 | CC(C)(O)CN1CCC(CNC(=O)c2cc(Cl)c(N)c3c2OCCC3)CC1 [Example 40, 5-Amino-6-chloro-N-{[1-(2-hydroxy-2-methylpropyl)-4-piperidinyl]methyl}chroman-8-carboxamide] | ≤ 1 nM
13 | Nc1c(Cl)cc(C(=O)NCC2(F)CCN(CC3CCOC3)CC2)c2c1CCCO2 (centres unmarked) [Example 10, 5-Amino-6-chloro-N-{[4-fluoro-1-(tetrahydro-3-furanylmethyl)-4-piperidinyl]methyl}chroman-8-carboxamide] | 1.1 to 5 nM
14 | CC(C)(O)CN1CCC(CNC(=O)c2cc(Br)c(N)c3c2OCCC3)CC1 [Example 46, 5-Amino-6-bromo-N-{[1-(2-hydroxy-2-methylpropyl)-4-piperidinyl]methyl}chroman-8-carboxamide L(+)-tartarate] | ≤ 1 nM
15 | Nc1c(Cl)cc(C(=O)NCC2[C@H]3CN(CC4CCOC4)C[C@@H]23)c2c1CCCO2 (stereo partly drawn) [Example 8, (R,S) 5-Amino-6-chloro-N-{[3-(tetrahydro-3-furanylmethyl)-3-azabicyclo[3.1.0]hex-6-yl]methyl}chroman-8-carboxamide] | ≤ 1 nM
16 | CC(C)(O)CN1CCC(F)(CNC(=O)c2cc(Cl)c(N)c3ccoc23)CC1 [Example 38, 4-Amino-5-chloro-N-{[4-fluoro-1-(2-hydroxy-2-methylpropyl)-4-piperidinyl]methyl}benzofuran-7-carboxamide] | 5.1 to 10 nM
17 | COCCCN1CC2C(CNC(=O)c3cc(Cl)c(N)c4ccoc34)C2C1 (centres unmarked) [Example 63, 4-Amino-5-chloro-N-{[3-(3-methoxypropyl)-3-azabicyclo[3.1.0]hex-6-yl]methyl}benzofuran-7-carboxamide hydrochloride] | 5.1 to 10 nM

The next lines start with the values.

Row | EC50 | SMILES
18 | 1.1 to 5 nM | Nc1c(Cl)cc(C(=O)NCC2C3CN(CC4(O)CCOCC4)CC23)c2c1CCO2 (centres unmarked) [Example 35, 4-Amino-5-chloro-N-{[3-(4-hydroxytetrahydropyran-4-ylmethyl)-3-azabicyclo[3.1.0]hex-6-yl]methyl}-2,3-dihydrobenzofuran-7-carboxamide oxalate]
19 | ≤ 1 nM | CC(C)(F)CN1CCC(CNC(=O)c2cc(Cl)c(N)c3c2OCCC3)CC1 [Example 55, 5-Amino-6-chloro-N-{[1-(2-fluoro-2-methylpropyl)-4-piperidinyl]methyl}chroman-8-carboxamide]
20 | 1.1 to 5 nM | CC(C)(O)CN1CCC(F)(CNC(=O)c2cc(Cl)c(N)c3c2OCCC3)CC1 [Example 43, 5-Amino-6-chloro-N-{[4-fluoro-1-(2-hydroxy-2-methylpropyl)-4-piperidinyl]methyl}chroman-8-carboxamide]
21 | 10.1 to 20 nM | COCCCN1CC2C(CNC(=O)c3cc(Br)c(N)c4c3OCC4)C2C1 (centres unmarked) [Example 65, 4-Amino-5-bromo-N-{[3-(3-methoxypropyl)-3-azabicyclo[3.1.0]hex-6-yl]methyl}-2,3-dihydrobenzofuran-7-carboxamide oxalate]
22 | 5.1 to 10 nM | CC(C)(F)CN1CCC(F)(CNC(=O)c2cc(Cl)c(N)c3c2OCCC3)CC1 [Example 57, 5-Amino-6-chloro-N-{[1-(2-fluoro-2-methylpropyl)-4-fluoro-4-piperidinyl]methyl}chroman-8-carboxamide L(+)-tartarate]
23 | 5.1 to 10 nM | Nc1c(Cl)cc(C(=O)NCC2C3CN(CC4CCOCC4)CC23)c2occc12 (centres unmarked) [Example 13, 4-Amino-5-chloro-N-{[3-(tetrahydro-2H-pyran-4-ylmethyl)-3-azabicyclo[3.1.0]hex-6-yl]methyl}benzofuran-7-carboxamide hydrochloride]
24 | ≤ 1 nM | CC(C)(CO)CN1CC2C(CNC(=O)c3cc(Cl)c(N)c4c3OCCC4)C2C1 (stereo not drawn) [Example 58, 5-Amino-6-chloro-N-{[3-(3-hydroxy-2,2-dimethylpropyl)-3-azabicyclo[3.1.0]hex-6-yl]methyl}chroman-8-carboxamide L(+)-tartarate]
25 | 5.1 to 10 nM | CC(C)(O)CN1CC2C(CNC(=O)c3cc(Cl)c(N)c4c3OCC4)C2C1 (centres unmarked) [Example 42, 4-Amino-5-chloro-N-{[3-(2-hydroxy-2-methylpropyl)-3-azabicyclo[3.1.0]hex-6-yl]methyl}-2,3-dihydrobenzofuran-7-carboxamide oxalate]
26 | ≤ 1 nM | Cc1cc2c(N)c(Cl)cc(C(=O)NCC3CCN(CC(C)(C)O)CC3)c2o1 [Example 52, 4-Amino-5-chloro-2-methyl-N-{[1-(2-hydroxy-2-methylpropyl)-4-piperidinyl]methyl}benzofuran-7-carboxamide L(+)-tartarate]
27 | 10.1 to 20 nM | Nc1c(Br)cc(C(=O)NCC2C3CN(C4CCOCC4)CC23)c2c1CCO2 (centres unmarked) [Example 29, 4-Amino-5-bromo-N-{[3-(tetrahydropyran-4-yl)-3-azabicyclo[3.1.0]hex-6-yl]methyl}-2,3-dihydrobenzofuran-7-carboxamide oxalate]
28 | 1.1 to 5 nM | Cc1cc2c(N)c(Cl)cc(C(=O)NCC3C4CN(CC5CCOCC5)CC34)c2o1 (centres unmarked) [Example 18, 4-Amino-5-chloro-2-methyl-N-{[3-(tetrahydro-2H-pyran-4-ylmethyl)-3-azabicyclo[3.1.0]hex-6-yl]methyl}benzofuran-7-carboxamide hydrochloride]
29 | 1.1 to 5 nM | Nc1c(Cl)cc(C(=O)NCC2C3CN(CC4(O)CCOCC4)CC23)c2c1CCCO2 (stereo not drawn) [Example 30, 5-Amino-6-chloro-N-{[3-(4-hydroxytetrahydro-2H-pyran-4-ylmethyl)-3-azabicyclo[3.1.0]hex-6-yl]methyl}chroman-8-carboxamide L(+)-tartarate]
30 | 5.1 to 10 nM | Nc1c(Cl)cc(C(=O)NCC2C3CN(C4CCOCC4)CC23)c2c1CCO2 (centres unmarked) [Example 28, 4-Amino-5-chloro-N-{[3-(tetrahydropyran-4-yl)-3-azabicyclo[3.1.0]hex-6-yl]methyl}-2,3-dihydrobenzofuran-7-carboxamide oxalate]
31 | 1.1 to 5 nM | Nc1c(Cl)cc(C(=O)NCC2CCN(CCF)CC2)c2c1CCCO2 [Example 66, 5-Amino-6-chloro-N-{[1-(2-fluoroethyl)-4-piperidinyl]methyl}chroman-8-carboxamide]
32 | 5.1 to 10 nM | COC(=O)N1CCC(N2CC3C(CNC(=O)c4cc(Cl)c(N)c5c4OCC5)C3C2)CC1 (stereo not drawn) [Example 24, 4-Amino-5-chloro-N-{[3-(1-methoxycarbonylpiperidine-4-yl)-3-azabicyclo[3.1.0]hex-6-yl]methyl}-2,3-dihydrobenzofuran-7-carboxamide L(+)-tartarate]
